Experimental data taken from paper PMC6272684, “Synthesis, Antiproliferative and Antifungal Activities of 1,2,3-Triazole-Substituted Carnosic Acid and Carnosol Derivatives” (Molecules, 2015).
“And” between values parts separate entries of the source, which are not always exact repeats. Equal values may be shown once.

Columns and labels:
C. albicans ATCC 10231 = experiment: Antifungal broth microdilution (CLSI M27-A3), growth inhibition; type: cell-based, Candida albicans; details: for MIC50 (minimum concentration to inhibit 50% of fungal growth), C. albicans: C. albicans ATCC 10231
Method: (§1) The antifungal properties of compounds 1–24 against two clinical important fungal species, C. albicans ATCC 10231 and C. neoformans ATCC 32264 were investigated. Results were expressed as the percentages of inhibition of each fungus in the range 250–3.9 μg∙mL^−1 by using the standardized microbroth dilution method M-27A3 of Clinical and Laboratory Standards Institute which assures reliable and reproducible results.
(§2) For the antifungal evaluation, standardized strains from the American Type Culture Collection (ATCC), Rockville, MD, USA, were used. The microorganisms included yeasts (Candida albicans ATCC 10231 and Cryptococcus neoformans ATCC 32264). Strains were grown on Sabouraud-chloramphenicol agar slants for 48 h at 30 °C, maintained on slopes of Sabouraud-dextrose agar (SDA, Oxoid), and subcultured every 15 days to prevent pleomorphic transformations. Inocula of cell or spore suspensions were obtained according to reported procedures and adjusted to 1–5 × 10^3 cells/spores with colony forming units (CFU)/mL [29].
(§3) Broth microdilution techniques were performed in 96-well microplates according to the Clinical and Laboratory Standards Institute Reference Method for Broth Dilution Antifungal Susceptibility Testing of Yeasts, Approved Standard M27-A3 [29]. For the assay, compound test wells (CTWs) were prepared with stock solutions of each compound in DMSO (maximum concentration ≤1%), diluted with RPMI-1640, to final concentrations of 250–3.9 μg∙mL^−1. An inoculum suspension (100 μL) was added to each well (final volume in the well = 200 μL). A growth control well (GCW) (containing medium, inoculum, and the same amount of DMSO used in a CTW, but compound-free) and a sterility control well (SCW) (sample, medium, and sterile water instead of inoculum) were included for each fungus tested. Microtiter trays were incubated in a moist, dark chamber at 30 °C for 48 h for both yeasts. Microplates were read in a VERSA Max microplate reader (Molecular Devices, Sunnyvale, CA, USA). Amphotericin B (Sigma-Aldrich) was used as positive control. Tests were performed in triplicate. Reduction of growth for each compound concentration was calculated as follows: % of inhibition = 100 − (OD 405 CTW − OD 405 SCW)/(OD 405 GCW − OD 405 SCW). The means ± SEM were the results of triplicate tests. Three endpoints were defined from the assay explained above and the dose-response curves. Minimum Inhibitory concentration (MIC) resulting in total fungal growth inhibition was named MIC100 while MIC50 was defined as the minimum concentration that inhibits 50% of the fungal growth.

C. neoformans ATCC 32264 = experiment: as above; type: cell-based, Cryptococcus neoformans; details: for MIC50 (minimum concentration to inhibit 50% of fungal growth), C. neoformans: C. neoformans ATCC 32264
Method: as §1, §2, §3

MIC50 (minimum concentration to inhibit 50% of fungal growth), C. albicans (C. albicans ATCC 10231)	MIC50 (minimum concentration to inhibit 50% of fungal growth), C. neoformans (C. neoformans ATCC 32264)	Structure (SMILES)	Inhibition percentage against C. albicans ATCC 10231 (C. albicans ATCC 10231; 3.9 μg∙mL^−1, 48 h)	Inhibition percentage against C. albicans ATCC 10231 (C. albicans ATCC 10231; 7.8 μg∙mL^−1, 48 h)	Inhibition percentage against C. albicans ATCC 10231 (C. albicans ATCC 10231; 15.6 μg∙mL^−1, 48 h)	Inhibition percentage against C. albicans ATCC 10231 (C. albicans ATCC 10231; 62.5 μg∙mL^−1, 48 h)	Inhibition percentage against C. albicans ATCC 10231 (C. albicans ATCC 10231; 125 μg∙mL^−1, 48 h)	Inhibition percentage against C. albicans ATCC 10231 (C. albicans ATCC 10231; 250 μg∙mL^−1, 48 h)	Inhibition percentage against C. albicans ATCC 10231 (C. albicans ATCC 10231; 31. μg∙mL^−1, 48 h)	Inhibition percentage against C. neoformans ATCC 32264 (C. neoformans ATCC 32264; 3.9 μg∙mL^−1, 48 h)	Inhibition percentage against C. neoformans ATCC 32264 (C. neoformans ATCC 32264; 7.8 μg∙mL^−1, 48 h)	Inhibition percentage against C. neoformans ATCC 32264 (C. neoformans ATCC 32264; 15.6 μg∙mL^−1, 48 h)	Inhibition percentage against C. neoformans ATCC 32264 (C. neoformans ATCC 32264; 31.2 μg∙mL^−1, 48 h)	Inhibition percentage against C. neoformans ATCC 32264 (C. neoformans ATCC 32264; 62.5 μg∙mL^−1, 48 h)	Inhibition percentage against C. neoformans ATCC 32264 (C. neoformans ATCC 32264; 125 μg∙mL^−1, 48 h)	Inhibition percentage against C. neoformans ATCC 32264 (C. neoformans ATCC 32264; 250 μg∙mL^−1, 48 h)	Antifungal activity against C. albicans (in words) (C. albicans ATCC 10231; at the assayed concentrations (250–3.9 μg∙mL^−1))
>250 µg/mL	250 µg/mL	COC(=O)C12CCCC(C)(C)C1CCc1cc(C(C)C)c(OC(=O)CCCc3cn(Cc4ccc(Br)cc4)nn3)c(OC(=O)CCCc3cn(Cc4ccc(Br)cc4)nn3)c12 (stereo not shown) [Compound 14, Methyl(11,12-O-(4-(1-(4-bromobenzyl)-1H-1,2,3-triazol-4-yl)-butanoyloxy)-abieta-8,11,13-triene)-20-oate]	1.3 ± 0.2%	1.3 ± 0.3%	1.9 ± 0.3%	9.3 ± 1.5%	13.3 ± 0.6%	29.1 ± 2.5%	6.3 ± 1.5%	0.0%	4.5 ± 0.2%	10.1 ± 1.0%	12.0 ± 1.2%	16.9 ± 1.1%	30.1 ± 1.4%	57.2%–67.4% and 67.4 ± 1.7%	
>250 µg/mL	>250 µg/mL	COC(=O)C12CCCC(C)(C)C1CCc1cc(C(C)C)c(OC(=O)CCc3cn(Cc4ccc([N+](=O)[O-])cc4)nn3)c(OC(=O)CCc3cn(Cc4ccc([N+](=O)[O-])cc4)nn3)c12 (stereo not shown) [Compound 15, Methyl(11,12-O-(3-(1-(4-nitrobenzyl)-1H-1,2,3-triazol-4-yl)-propanoyloxy)-abieta-8,11,13-triene)-20-oate]	0.0%	0.0%	2.6 ± 0.3%	8.2 ± 0.3%	15.2 ± 2.8%	33.4 ± 2.7%	3.0 ± 1.1%	0.0%	0.0%	10.0 ± 0.6%	13.0 ± 1.4%	15.5 ± 2.0%	22.0 ± 2.7%	45.4 ± 3.0%	
>250 µg/mL	>250 µg/mL	COC(=O)C12CCCC(C)(C)C1CCc1cc(C(C)C)c(OC(=O)CCCc3cn(Cc4ccc([N+](=O)[O-])cc4)nn3)c(OC(=O)CCCc3cn(Cc4ccc([N+](=O)[O-])cc4)nn3)c12 (stereo not shown) [Compound 16, Methyl(11,12-O-(4-(1-(4-nitrobenzyl)-1H-1,2,3-triazol-4-yl)-butanoyloxy)-abieta-8,11,13-triene)-20-oate]	0.0%	0.8 ± 0.1%	2.3 ± 0.1%	7.2 ± 0.1%	11.7 ± 0.5%	21.1 ± 2.4%	3.4 ± 0.5%	0.0%	3.5 ± 0.4%	5.0 ± 0.4%	7.9 ± 0.1%	14.5 ± 0.2%	35.5 ± 0.4%	36.9 ± 0.8%	
>250 µg/mL	>250 µg/mL	CC(C)c1cc2c(c(OC(=O)CCc3cn(CSc4ccccc4)nn3)c1OC(=O)CCc1cn(CSc3ccccc3)nn1)C13CCCC(C)(C)C1CC2OC3=O (stereo not drawn) [Compound 17, (7β)-11,12-O-(3-(((1-phenylthio)methyl)-1H-1,2,3-triazol-4-yl)-propanoyloxy)-7,20-epoxyabieta-8,11,13-trien-20-one]	0.0%	2.8 ± 0.6%	4.8 ± 1.0%	11.5 ± 0.7%	21.2 ± 0.2%	42.3 ± 0.7%	6.7 ± 1.1%	0.0%	0.0%	0.0%	0.0%	0.0%	11.4 ± 1.2%	41.1 ± 1.3%	weak effect
250 µg/mL	>250 µg/mL	CC(C)c1cc2c(c(OC(=O)CCCc3cn(CSc4ccccc4)nn3)c1OC(=O)CCCc1cn(CSc3ccccc3)nn1)C13CCCC(C)(C)C1CC2OC3=O (stereo not drawn) [Compound 18, (7β)-11,12-O-(4-(((1-phenylthio)methyl)-1H-1,2,3-triazol-4-yl)-butanoyloxy)-7,20-epoxyabieta-8,11,13-trien-20-one]	1.0 ± 0.1%	2.5 ± 0.2%	2.8 ± 1.0%	18.3 ± 0.1%	35.4 ± 2.1%	57.9 ± 1.0%	11.5 ± 1.8%	0.0%	0.0%	0.0%	0.0%	0.0%	11.8 ± 0.6%	44.3 ± 1.9%	
>250 µg/mL	>250 µg/mL	CC(C)c1cc2c(c(OC(=O)CCc3cn(Cc4ccccc4)nn3)c1OC(=O)CCc1cn(Cc3ccccc3)nn1)C13CCCC(C)(C)C1CC2OC3=O (stereo not drawn) [Compound 19, (7β)-11,12-O-(3-(1-benzyl-1H-1,2,3-triazol-4-yl)-propanoyloxy)-7,20-epoxyabieta-8,11,13-trien-20-one]	0.7 ± 0.3%	3.2 ± 0.1%	3.2 ± 0.1%	11.9 ± 1.0%	21.1 ± 1.0%	37.8 ± 0.5%	4.6 ± 1.8%	0.0%	0.0%	0.0%	0.0%	3.3 ± 1.1%	7.1 ± 2.0%	31.3 ± 1.6%	
